According to ChEMBL document CHEMBL1201862, “PubChem BioAssay data set” (2004):
Calls of active or inactive are those of the source.

Columns and labels:
[1] = biological target: Death-associated protein kinase 3 (Homo sapiens, UniProt O43293); format: functional;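 further: measured as one member of a kinome-wide profiling panel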
[2] = biological target: Ribosomal protein S6 kinase alpha-3 (Homo sapiens, UniProt P51812); format: functional;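 further: measured within a kinome-wide profiling panel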
[3] = biological target: ALK tyrosine kinase receptor (Homo sapiens, UniProt Q9UM73); format: functional;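 further: ALK tested as one member of a kinase panel screen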
[4] = biological target: BDNF/NT-3 growth factors receptor (Homo sapiens, UniProt Q16620); format: functional;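 further: NTRK2 measured as one member of a broad kinome-wide kinase profiling panel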
[5] = biological target: Glycogen synthase kinase-3 alpha (Homo sapiens, UniProt P49840); format: functional;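 further: GSK3A result taken from a broad kinome-wide kinase panel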
[6] = biological target: Serine/threonine-protein kinase D3 (Homo sapiens, UniProt O94806); format: functional;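 further: determined within a kinase panel screen, with PRKCN as the panel member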
[7] = biological target: T1, cAMP-dependent protein kinase catalytic subunit PRKX (Homo sapiens, UniProt P51817); format: functional
T1 sequence (P51817 whole entry): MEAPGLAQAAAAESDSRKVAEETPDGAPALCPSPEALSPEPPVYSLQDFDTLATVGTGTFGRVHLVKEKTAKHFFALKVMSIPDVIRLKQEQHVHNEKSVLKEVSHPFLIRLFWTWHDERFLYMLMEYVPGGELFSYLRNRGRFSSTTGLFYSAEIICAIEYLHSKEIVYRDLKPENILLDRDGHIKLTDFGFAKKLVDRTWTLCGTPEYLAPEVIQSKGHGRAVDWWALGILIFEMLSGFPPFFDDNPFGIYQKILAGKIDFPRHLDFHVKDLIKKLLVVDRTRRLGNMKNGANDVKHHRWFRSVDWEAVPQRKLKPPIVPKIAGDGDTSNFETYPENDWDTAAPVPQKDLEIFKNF

[8] = biological target: Mitogen-activated protein kinase 14 (Homo sapiens, UniProt Q16539); format: functional;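 further: part of a kinome-wide panel, MAPK14 entry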
[9] = biological target: Serine/threonine-protein kinase TBK1 (Homo sapiens, UniProt Q9UHD2); assay: Navigating the Kinome. Panel member name: TBK1; format: functional
Serine/threonine-protein kinase TBK1, sequence (Q9UHD2 whole entry): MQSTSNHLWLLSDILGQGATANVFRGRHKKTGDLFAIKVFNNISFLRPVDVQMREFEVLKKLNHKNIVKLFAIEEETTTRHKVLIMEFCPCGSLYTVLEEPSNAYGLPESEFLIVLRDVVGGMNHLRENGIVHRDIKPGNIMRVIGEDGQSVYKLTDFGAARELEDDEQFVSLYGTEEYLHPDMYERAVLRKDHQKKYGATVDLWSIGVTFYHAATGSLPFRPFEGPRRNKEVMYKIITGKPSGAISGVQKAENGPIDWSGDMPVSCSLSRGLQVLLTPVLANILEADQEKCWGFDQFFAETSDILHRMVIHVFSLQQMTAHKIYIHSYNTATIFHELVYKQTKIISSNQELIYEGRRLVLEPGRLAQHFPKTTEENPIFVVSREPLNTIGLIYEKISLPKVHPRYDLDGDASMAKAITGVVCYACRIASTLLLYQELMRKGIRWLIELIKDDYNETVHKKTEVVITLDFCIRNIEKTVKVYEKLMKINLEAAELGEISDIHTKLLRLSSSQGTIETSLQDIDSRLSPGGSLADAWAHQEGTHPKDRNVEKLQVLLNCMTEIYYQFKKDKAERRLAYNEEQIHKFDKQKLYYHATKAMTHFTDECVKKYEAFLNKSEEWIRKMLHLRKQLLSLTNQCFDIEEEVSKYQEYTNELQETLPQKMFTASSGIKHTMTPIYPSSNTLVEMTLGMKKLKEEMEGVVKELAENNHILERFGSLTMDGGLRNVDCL

[10] = biological target: Insulin-like growth factor 1 receptor (Homo sapiens, UniProt P08069); assay: Navigating the Kinome. Panel member name: IGF1R; format: functional
[11] = biological target: cAMP-dependent protein kinase catalytic subunit alpha (Homo sapiens, UniProt P17612); format: functional
[12] = biological target: Mitogen-activated protein kinase 9 (Homo sapiens, UniProt P45984); format: functional;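 further: value from a kinome panel profiling assay, MAPK9 panel entry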
Mitogen-activated protein kinase 9, sequence (P45984 whole entry): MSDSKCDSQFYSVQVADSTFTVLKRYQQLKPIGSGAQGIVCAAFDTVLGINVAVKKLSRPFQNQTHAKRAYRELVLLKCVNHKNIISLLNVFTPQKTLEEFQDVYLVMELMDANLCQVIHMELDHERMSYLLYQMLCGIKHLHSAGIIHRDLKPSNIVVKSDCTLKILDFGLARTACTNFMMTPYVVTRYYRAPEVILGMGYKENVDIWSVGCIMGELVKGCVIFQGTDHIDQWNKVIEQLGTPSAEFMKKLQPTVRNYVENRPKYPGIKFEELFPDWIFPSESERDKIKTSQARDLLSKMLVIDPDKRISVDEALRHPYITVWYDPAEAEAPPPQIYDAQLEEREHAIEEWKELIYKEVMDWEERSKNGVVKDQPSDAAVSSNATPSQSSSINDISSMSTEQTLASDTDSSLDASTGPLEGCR

[13] = biological target: Aurora kinase A (Homo sapiens, UniProt O14965); format: functional;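 further: value from the Navigating the Kinome kinase panel profiling, panel entry STK6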
Aurora kinase A, sequence (O14965 whole entry): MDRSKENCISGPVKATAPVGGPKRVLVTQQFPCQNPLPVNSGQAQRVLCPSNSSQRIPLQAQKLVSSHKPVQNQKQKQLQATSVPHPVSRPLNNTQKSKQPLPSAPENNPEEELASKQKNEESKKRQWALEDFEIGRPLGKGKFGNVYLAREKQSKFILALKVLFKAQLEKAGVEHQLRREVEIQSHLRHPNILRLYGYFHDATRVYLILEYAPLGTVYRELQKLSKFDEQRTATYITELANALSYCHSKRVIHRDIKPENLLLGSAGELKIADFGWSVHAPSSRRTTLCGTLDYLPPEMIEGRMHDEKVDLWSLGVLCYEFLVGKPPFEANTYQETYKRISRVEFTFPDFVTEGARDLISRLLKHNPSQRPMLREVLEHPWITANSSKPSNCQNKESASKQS

[14] = biological target: Vascular endothelial growth factor receptor 2 (Homo sapiens, UniProt P35968); format: functional
Vascular endothelial growth factor receptor 2, sequence (P35968 whole entry): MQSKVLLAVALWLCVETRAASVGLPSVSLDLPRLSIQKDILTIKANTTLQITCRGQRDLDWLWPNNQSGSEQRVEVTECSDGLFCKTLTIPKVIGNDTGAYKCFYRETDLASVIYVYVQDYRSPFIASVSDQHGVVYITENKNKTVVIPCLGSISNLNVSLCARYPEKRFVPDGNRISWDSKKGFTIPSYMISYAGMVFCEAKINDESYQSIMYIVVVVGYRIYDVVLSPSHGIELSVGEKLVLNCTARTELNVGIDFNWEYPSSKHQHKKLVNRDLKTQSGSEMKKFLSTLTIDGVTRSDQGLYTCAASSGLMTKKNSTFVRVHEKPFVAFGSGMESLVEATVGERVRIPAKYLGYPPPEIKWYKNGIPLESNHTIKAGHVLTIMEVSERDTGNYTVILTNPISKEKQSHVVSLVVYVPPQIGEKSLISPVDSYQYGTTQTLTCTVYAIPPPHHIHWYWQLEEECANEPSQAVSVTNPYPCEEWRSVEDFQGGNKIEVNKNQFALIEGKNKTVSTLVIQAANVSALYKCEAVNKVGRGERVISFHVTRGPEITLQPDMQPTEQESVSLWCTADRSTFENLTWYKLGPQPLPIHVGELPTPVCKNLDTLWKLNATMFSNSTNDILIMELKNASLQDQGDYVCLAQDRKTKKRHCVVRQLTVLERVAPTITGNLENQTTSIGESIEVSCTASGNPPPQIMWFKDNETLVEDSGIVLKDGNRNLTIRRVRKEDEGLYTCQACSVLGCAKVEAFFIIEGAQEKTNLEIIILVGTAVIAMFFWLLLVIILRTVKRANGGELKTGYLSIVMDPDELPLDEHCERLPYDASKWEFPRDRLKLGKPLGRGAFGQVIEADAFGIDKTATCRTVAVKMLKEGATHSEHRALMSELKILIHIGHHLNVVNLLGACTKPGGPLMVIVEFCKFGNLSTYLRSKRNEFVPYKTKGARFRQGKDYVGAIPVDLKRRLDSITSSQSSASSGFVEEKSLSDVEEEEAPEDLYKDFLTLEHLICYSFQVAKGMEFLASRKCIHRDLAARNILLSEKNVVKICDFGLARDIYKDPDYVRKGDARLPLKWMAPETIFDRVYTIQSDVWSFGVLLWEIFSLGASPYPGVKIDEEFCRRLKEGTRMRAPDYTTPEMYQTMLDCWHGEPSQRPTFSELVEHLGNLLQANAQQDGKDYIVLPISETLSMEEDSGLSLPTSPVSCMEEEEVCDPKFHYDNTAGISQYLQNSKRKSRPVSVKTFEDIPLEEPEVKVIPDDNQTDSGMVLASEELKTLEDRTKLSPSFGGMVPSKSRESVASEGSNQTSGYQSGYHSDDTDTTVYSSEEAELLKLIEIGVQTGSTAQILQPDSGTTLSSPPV

[15] = biological target: High affinity nerve growth factor receptor (Homo sapiens, UniProt P04629); format: functional;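 further: NTRK1 tested as one member of a kinome-wide profiling panel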
High affinity nerve growth factor receptor, sequence (P04629 whole entry): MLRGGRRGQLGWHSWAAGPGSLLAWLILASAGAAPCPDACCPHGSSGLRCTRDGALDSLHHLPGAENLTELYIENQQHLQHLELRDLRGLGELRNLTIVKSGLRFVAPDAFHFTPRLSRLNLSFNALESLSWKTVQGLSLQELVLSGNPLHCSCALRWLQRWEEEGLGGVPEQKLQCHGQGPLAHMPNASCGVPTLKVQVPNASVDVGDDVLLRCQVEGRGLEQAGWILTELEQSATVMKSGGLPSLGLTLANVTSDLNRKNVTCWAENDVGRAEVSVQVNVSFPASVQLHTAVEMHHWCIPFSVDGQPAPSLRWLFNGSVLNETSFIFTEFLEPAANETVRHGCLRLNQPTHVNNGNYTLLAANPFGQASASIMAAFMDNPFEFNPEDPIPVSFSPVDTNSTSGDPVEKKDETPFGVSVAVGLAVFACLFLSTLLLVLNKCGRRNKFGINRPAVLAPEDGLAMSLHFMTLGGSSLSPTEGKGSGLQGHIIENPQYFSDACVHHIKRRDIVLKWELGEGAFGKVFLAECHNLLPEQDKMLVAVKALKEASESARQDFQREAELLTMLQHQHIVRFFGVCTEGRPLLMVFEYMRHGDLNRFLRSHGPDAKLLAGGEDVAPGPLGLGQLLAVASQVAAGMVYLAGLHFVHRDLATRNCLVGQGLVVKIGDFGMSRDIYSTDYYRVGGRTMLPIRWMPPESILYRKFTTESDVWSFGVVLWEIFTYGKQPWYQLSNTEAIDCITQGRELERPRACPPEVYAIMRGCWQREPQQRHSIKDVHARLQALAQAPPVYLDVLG

[16] = biological target: Calcium/calmodulin-dependent protein kinase type II subunit alpha (Homo sapiens, UniProt Q9UQM7); assay: Navigating the Kinome. Panel member name: CAMK2A; format: functional
[17] = biological target: Leukocyte tyrosine kinase receptor (Homo sapiens, UniProt P29376); assay: Navigating the Kinome. Panel member name: LTK; format: functional
[18] = biological target: T2, Heat shock factor protein 1 (Mus musculus, UniProt P38532); assay: HSF1 potentiators in luciferase reporter cells, confirmation, cell-based, NIH3T3, luminescence, dose retest (AID 435004); format: functional;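 further: stress induced by proteasome inhibitor MG132 added 30 min after compound; luciferase reporter driven by HSF1 response element in NIH3T3 cells; actives raise luminescence as potentiators of the MG132 stress response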
T2 sequence (P38532 whole entry): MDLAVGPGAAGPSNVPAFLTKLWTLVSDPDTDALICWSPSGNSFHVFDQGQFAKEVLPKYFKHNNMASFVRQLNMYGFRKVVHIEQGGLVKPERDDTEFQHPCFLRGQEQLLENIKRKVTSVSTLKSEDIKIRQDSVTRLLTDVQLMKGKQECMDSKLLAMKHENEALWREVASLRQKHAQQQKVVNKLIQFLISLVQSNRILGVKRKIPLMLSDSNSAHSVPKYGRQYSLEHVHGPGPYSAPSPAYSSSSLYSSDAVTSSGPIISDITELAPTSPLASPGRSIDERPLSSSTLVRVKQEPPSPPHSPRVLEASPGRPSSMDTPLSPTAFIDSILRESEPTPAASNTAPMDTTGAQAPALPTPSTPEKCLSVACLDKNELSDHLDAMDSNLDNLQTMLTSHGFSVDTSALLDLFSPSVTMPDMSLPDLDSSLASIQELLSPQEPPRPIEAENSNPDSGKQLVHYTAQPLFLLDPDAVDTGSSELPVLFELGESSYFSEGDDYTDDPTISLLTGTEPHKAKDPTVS

[19] = cytotoxicity toward NIH3T3 fibroblasts, dose response, counter-screen, cell-based, ATP luminescence, mouse fibroblasts (AID 2010); format: functional;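 further: cells exposed to compound for about 90 hours before reading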
[20] = biological target: ATP-dependent molecular chaperone HSP82 (Candida albicans (strain WO-1) (Yeast), UniProt C4YTQ8); assay: loss of DOC-induced GRE-beta-galactosidase reporter signal, dose response, Hsp90 inhibitor project, S. cerevisiae, luminescence (AID 2400); format: functional, cell-based;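 further: beta-galactosidase luminescence from glucocorticoid response element reporter as proxy for Hsp90 function; inhibitor potency where signal loss means Hsp90 inhibition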
[21] = Shn3 3'UTR reporter inhibitors, dose response, cell-based, Clone20 osteoblasts, firefly luciferase, cherry-picked (AID 624132); format: functional;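 further: firefly luciferase luminescence from reporter carrying the Shn3 3'UTR in osteoblasts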
[22] = HepG2 cell cytotoxicity, dose response, cytotoxicity control for Shn3 inhibitor project, CellTiter-Glo, cherry-picked (AID 624134); format: functional, cell-based
[23] = biological target: T3, Microphthalmia-associated transcription factor (Homo sapiens, UniProt O75030); assay: TRPM1 promoter luciferase signal decrease, dose response, MITF inhibitor project, cell-based, SK-MEL-5, cherry-picked, set 3 (AID 493073); format: functional
T3 sequence (O75030 whole entry): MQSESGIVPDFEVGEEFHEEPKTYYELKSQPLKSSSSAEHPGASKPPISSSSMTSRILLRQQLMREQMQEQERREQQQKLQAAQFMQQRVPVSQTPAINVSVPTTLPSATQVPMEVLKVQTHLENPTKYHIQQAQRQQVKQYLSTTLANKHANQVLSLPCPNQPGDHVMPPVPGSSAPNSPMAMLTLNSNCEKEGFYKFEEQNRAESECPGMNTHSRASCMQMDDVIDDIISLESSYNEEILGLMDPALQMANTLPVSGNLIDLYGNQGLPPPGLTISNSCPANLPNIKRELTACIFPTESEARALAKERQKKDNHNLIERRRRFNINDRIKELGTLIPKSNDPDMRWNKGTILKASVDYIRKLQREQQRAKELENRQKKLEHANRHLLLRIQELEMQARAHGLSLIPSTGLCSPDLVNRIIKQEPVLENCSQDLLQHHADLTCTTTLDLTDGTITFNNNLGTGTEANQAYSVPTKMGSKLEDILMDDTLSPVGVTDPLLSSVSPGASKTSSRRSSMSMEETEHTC

Death-associated protein kinase 3, sequence (O43293 whole entry): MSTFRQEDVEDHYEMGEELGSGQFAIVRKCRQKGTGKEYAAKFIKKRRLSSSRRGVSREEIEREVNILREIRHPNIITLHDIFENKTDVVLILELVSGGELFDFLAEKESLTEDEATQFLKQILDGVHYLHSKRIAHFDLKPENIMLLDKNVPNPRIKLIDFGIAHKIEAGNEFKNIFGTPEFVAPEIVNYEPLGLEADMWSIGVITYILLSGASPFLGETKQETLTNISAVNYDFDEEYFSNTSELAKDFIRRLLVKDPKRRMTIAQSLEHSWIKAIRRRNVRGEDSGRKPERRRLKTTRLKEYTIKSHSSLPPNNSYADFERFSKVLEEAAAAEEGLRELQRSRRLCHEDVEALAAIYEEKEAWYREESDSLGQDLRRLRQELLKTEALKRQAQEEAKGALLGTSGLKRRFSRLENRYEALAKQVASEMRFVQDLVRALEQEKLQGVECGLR
Ribosomal protein S6 kinase alpha-3, sequence (P51812 whole entry): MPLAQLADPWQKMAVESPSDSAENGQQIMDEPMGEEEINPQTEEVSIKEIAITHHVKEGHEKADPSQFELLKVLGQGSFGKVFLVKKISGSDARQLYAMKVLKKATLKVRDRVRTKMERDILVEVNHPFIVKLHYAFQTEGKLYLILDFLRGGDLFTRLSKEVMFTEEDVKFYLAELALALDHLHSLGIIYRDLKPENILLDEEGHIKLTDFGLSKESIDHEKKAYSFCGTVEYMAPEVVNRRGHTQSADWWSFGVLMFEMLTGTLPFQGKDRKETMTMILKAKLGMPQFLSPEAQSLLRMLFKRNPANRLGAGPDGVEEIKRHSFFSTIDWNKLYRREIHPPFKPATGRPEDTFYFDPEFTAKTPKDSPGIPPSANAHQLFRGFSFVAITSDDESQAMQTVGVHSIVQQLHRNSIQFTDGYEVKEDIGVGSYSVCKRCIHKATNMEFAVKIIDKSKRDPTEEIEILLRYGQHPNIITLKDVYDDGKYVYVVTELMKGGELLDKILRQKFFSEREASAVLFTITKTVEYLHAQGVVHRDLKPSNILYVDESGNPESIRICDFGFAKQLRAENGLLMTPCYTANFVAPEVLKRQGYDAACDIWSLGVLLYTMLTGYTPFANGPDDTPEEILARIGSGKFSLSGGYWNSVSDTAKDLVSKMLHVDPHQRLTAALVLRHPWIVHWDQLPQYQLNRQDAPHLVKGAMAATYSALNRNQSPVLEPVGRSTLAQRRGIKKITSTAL

Compound: O=C1NC(=O)C(c2c[nH]c3ccccc23)=C1c1nc(N2CCNCC2)nc2ccccc12
- Ki [1]: 631 nM (active)
- Ki [2]: 50.1 nM (active)
- Ki [3]: 3980 nM (active)
- Ki [4]: > 3980 nM (inactive)
- Ki [5]: 39.8 nM (active)
- Ki [6]: 1580 nM (active)
- Ki [7]: > 2000 nM (inactive)
- Ki [8]: > 3980 nM (inactive)
- Ki [9]: > 3160 nM (inactive)
- Ki [10]: > 2510 nM (inactive)
- Ki [11]: 31.6 nM (active)
- Ki [12]: > 3980 nM (inactive)
- Ki [13]: > 1580 nM (inactive)
- Ki [14]: 794 nM (active)
- Ki [15]: 2510 nM (active)
- Ki [16]: 501 nM (active)
- Ki [17]: 794 nM (active)

Compound: CCCC(=O)NC(c1ccc(N(C)C)cc1)c1ccc2cccnc2c1O (stereo not drawn)
- EC50 [18]: > 260000 nM (inactive)
- EC50 [19]: 729 nM (active)
- EC50 [20]: > 160000 nM (inactive)
- AC50 [21]: 916 nM (active)
- AC50 [22]: 2090 nM (active)

Compound: CCc1cc[n+](C2=C([N-]S(=O)(=O)c3cccs3)C(=O)c3ccccc3C2=O)cc1
- AC50 [23]: 1150 nM (active)
